The structures appear in SMILES notation. Structures can show the parent of a compound that is named as a salt.

The text below walks through data of patent publication US5350762A, “Tetrahydrocyclopent[B]indole methanamines and related compounds” (priority 1993, dated 1994).

Experiment [1] concerns the target T1, acetylcholinesterase (AChE) (Rattus norvegicus, UniProt P37136).
T1 construct: corpora striata dissected free, weighed and homogenized in 19 volumes; from tissue; host or cells: male Wistar rat corpora striata, whole homogenate
T1 sequence (P37136 32-614): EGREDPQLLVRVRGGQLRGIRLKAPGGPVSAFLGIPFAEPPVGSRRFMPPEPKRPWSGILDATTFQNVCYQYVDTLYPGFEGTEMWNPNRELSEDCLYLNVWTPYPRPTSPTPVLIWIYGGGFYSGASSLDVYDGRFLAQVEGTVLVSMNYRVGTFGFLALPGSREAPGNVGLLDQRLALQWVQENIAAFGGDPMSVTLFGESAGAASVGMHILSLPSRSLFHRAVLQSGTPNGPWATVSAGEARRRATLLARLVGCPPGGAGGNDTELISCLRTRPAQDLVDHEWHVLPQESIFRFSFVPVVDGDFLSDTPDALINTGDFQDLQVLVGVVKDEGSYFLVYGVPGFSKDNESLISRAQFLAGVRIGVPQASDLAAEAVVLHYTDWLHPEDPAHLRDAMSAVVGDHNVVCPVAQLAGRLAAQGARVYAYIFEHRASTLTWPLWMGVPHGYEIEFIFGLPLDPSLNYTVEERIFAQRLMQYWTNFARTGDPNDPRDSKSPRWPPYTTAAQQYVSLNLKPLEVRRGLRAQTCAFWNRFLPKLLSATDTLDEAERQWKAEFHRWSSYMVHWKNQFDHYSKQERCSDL
The experiment can be described thus: In vitro inhibition of acetylcholinesterase activity in rat striatum. Format: biochemical, Rat (male Wistar). An excerpt:
Cholinesterase Inhibition Assay
Cholinesterases are found throughout the body, both in the brain and in serum. However, only brain acetylcholinesterase (AChE) distribution is correlated with central cholinergic innervation.
In Vitro Inhibition of Acetylcholinesterase Activity in Rat Striatum
The method described below was used in this invention for assaying cholinesterase activity.
1. 0.05M Phosphate buffer, pH 7.2
(c) add (a) to (b) until pH reaches 7.2
4. […] If active, IC50 values are determined from the inhibitory activity of subsequent concentrations.
Enzyme activity is measured with the Beckman DU-50 spectrophotometer. This method can be used for IC50 determinations and for measuring kinetic constants.
Reagents are added to the blank and sample cuvettes as follows:
Blank values are determined for each run to control for non-enzymatic hydrolysis of substrate and these values are automatically subtracted by the kindata program available on kinetics soft-pac module. This program also calculates the rate of absorbance change for each cuvette.
Substrate concentration is 10 mM diluted 1:2 in assay yielding final concentration of 5 mM. DTNB concentration is 0.5 mM yielding 0.25 mM final concentration. [formula] IC50 values are calculated from log-probit analysis

In experiment [2] the target is T2, Type B monoamine oxidase (MAO-B) (Rattus norvegicus, UniProt P19643).
T2 construct: served as the tissue source for mitochondrial MAO; from tissue; host or cells: male Wistar rat whole brain minus cerebellum, P2 pellet (18,000 g)
T2 sequence (P19643 1-520): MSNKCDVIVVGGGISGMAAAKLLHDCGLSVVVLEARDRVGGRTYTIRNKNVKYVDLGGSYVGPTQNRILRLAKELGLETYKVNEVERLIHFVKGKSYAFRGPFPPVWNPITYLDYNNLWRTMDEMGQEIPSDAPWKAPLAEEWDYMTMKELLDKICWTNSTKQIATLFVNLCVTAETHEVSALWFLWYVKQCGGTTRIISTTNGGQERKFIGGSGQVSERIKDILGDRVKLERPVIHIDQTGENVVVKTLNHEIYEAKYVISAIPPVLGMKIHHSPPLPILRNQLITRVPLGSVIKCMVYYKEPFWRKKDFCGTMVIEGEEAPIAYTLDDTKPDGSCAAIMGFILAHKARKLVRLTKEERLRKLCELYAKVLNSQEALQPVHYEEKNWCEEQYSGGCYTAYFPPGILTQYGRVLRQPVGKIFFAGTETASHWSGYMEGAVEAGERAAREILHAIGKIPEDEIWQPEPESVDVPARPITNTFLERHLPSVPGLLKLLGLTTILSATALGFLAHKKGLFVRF
The experiment can be described thus: Inhibition of Type B monoamine oxidase activity in rat brain synaptosomes. Format: biochemical, Rat (male Wistar). The settings on record: [14C]-PEA substrate 200 μM, 15 min preincubation, 30 min at 37° C., pH 7.4, read-out: Inhibitory Concentration - IC50, Type-B. The source says: (§1) Male Wistar rats weighing 150-250 grams were sacrificed and the brains rapidly removed.

The target of experiment [3] is T3, Type A monoamine oxidase (MAO-A) (Rattus norvegicus, UniProt P21396).
T3 construct: served as the tissue source for mitochondrial MAO; from tissue; host or cells: male Wistar rat whole brain minus cerebellum, P2 pellet (18,000 g)
T3 sequence (P21396 1-526): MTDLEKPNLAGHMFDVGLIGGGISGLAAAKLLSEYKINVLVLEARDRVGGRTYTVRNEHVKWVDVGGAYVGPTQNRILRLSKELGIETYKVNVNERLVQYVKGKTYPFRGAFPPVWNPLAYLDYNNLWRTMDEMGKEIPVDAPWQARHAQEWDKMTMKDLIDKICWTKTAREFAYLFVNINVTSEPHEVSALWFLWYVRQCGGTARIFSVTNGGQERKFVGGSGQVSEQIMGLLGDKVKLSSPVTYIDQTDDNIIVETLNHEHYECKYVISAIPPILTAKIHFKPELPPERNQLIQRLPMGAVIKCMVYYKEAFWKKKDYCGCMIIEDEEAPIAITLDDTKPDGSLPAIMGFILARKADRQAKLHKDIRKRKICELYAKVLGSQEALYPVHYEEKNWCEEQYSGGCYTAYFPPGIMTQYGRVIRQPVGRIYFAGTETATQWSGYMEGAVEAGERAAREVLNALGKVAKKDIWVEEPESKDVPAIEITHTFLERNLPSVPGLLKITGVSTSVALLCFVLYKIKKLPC
Briefly: Inhibition of Type A monoamine oxidase activity in rat brain synaptosomes. Type of experiment: biochemical, Rat (male Wistar). Particulars: [3H]-5HT substrate 200 μM, 15 min preincubation, 30 min at 37° C., pH 7.4, read-out: Inhibitory Concentration - IC50, Type-A.
Excerpt: as §1

Experiment [4] deals with monoamine oxidase type A and type B. Particulars: in words; reference (2), Fowler and Ross 1984; cited from earlier work.

`CNC(=O)Oc1ccc2c(c1)c1c(n2C)CC(CN(C)C)C1` (centres unmarked) [1,2,3,4-Tetrahydro-2-[(dimethylamino)methyl]-4-methylcyclopent[b]indol-7-yl-methylcarbamate hydrochloride] came in with an IC50 in experiment [1] of 9.6 µM. As for `CCNCC1Cc2c(n(C)c3ccc(OC)cc23)C1` (centres unmarked) [1,2,3,4-Tetrahydro-4-methyl-7-methoxy-N-ethylcyclopent[b]indole-2-methanamine maleate], the IC50 in experiment [2] was 713 µM; in experiment [3], 182 µM. On the same counts, the results for `COc1ccc2c(c1)c1c(n2C)CC(CN)C1` (centres unmarked) [1,2,3,4-Tetrahydro-7-methoxy-4-methylcyclopent[b]indole-2-methanamine hydrochloride] are 287 µM and 59 µM.

For `C#CCN(C)CCCOc1ccc(Cl)cc1Cl` [Clorgyline], the “selectivity of inhibition of type A / type B monoamine oxidase” value in experiment [4] was “selective inhibitor of the type A enzyme”.

Turning to `CC(C)NNC(=O)c1ccncc1` [iproniazid], in experiment [4], the “selectivity of inhibition of type A / type B monoamine oxidase” value is given as “nonselective inhibitors”. As for `C#CCN(C)Cc1ccccc1` [pargyline], in experiment [4], the “selectivity of inhibition of type A / type B monoamine oxidase” value is listed as “selective inhibitors of the type B enzyme”.
